According to patent US12297203B2, “Pyrrolopyrimidine ITK inhibitors” (ACLARIS THERAPEUTICS, INC., priority 2018, dated 2025):

Experiments:
ITK = ITK (Homo sapiens (Human), UniProt Q08881); assay: ITK inhibitor binding potency (LanthaScreen competitive binding assay); details: read-out: ITK Inh. IC50
Outline: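 TR-FRET tracer displacement: 10 nM GST-ITK, 2 nM Eu-anti-GST, 50 nM tracer-236 in HEPES pH 7.5, MgCl2, 2% DMSO; 11 points, 20 µM–0.34 nM. Run with or without 2 h compound–ITK preincubation before tracer; IC50 by 4-parameter fit of emission ratio.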

JAK3 = JAK3 (Homo sapiens (Human), UniProt P52333); assay: JAK3 enzyme activity assay (Caliper mobility shift); assay type: biochemical; details: ATP at Km level; read-out: JAK3 Inh. IC50
Outline: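 Caliper mobility-shift assay with 2.5 nM JAK3, […] and […] (Km level) in 20 mM HEPES pH 7.5, 10 mM MgCl2, 0.01% BSA, 0.0005% Tween-20, 2% DMSO. 11-point dose-response from […] 0.34 nM; IC50 by 4-parameter logistic fit of product/substrate signal.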

[1] = system: ITK phosphorylation of its substrate, PLCγ1, at Y783; assay: ITK target modulation assay (PLCγ1 Y783 phosphorylation, anti-CD3 stimulated Jurkat T cells); assay type: cell-based; details: Homo sapiens, Jurkat, anti-CD3 Dynabeads stimulation, read-out: PLC-γ Inh. IC50
Outline: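 Jurkat cells (400,000/well) were preincubated with compound for 1 h at 37 °C (0.1% DMSO final), then stimulated with anti-CD3 Dynabeads (bead:cell 2:1). Hypotonic lysates were dot-blotted and probed for phospho-PLCγ1 Y783 and total PLCγ1, with quantification by dual-channel infrared imaging.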

[2] = system: JAK1/3 phosphorylation of its substrate, STAT5, at Y694; assay: JAK1/3 target modulation assay (IL-2 stimulated STAT5 Y694 phosphorylation in PBMC); assay type: cell-based; details: Homo sapiens, PBMC, Primary human peripheral blood mononuclear cells, IL-2 25 ng/mL; read-out: IL2-STAT5 Inh. IC50
Outline: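 Human PBMCs preincubated with compound for 1 h at 37 °C, then stimulated with IL-2 (25 ng/mL final) for 5 min. Cells were lysed and phospho-STAT5a,b (Y694) measured by MSD electrochemiluminescence immunoassay, single-plex or multiplex with total STAT5a,b.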

Sequence of ITK (Q08881 whole entry): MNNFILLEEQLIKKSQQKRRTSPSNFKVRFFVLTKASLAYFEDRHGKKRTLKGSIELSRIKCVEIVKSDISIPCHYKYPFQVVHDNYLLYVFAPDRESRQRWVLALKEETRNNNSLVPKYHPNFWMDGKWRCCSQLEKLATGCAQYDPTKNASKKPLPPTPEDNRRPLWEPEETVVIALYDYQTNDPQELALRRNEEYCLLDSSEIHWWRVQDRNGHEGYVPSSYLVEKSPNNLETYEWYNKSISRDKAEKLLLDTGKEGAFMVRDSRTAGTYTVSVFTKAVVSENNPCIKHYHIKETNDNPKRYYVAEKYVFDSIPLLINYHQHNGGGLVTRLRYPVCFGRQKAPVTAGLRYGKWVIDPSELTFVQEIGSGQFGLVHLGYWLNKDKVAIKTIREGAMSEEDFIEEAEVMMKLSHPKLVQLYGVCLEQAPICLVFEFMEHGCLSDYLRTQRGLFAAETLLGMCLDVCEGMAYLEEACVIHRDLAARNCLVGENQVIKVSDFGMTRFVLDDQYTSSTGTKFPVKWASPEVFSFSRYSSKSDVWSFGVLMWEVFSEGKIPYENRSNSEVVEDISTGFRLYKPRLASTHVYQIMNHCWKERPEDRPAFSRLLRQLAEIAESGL
Sequence of JAK3 (P52333 781-1124): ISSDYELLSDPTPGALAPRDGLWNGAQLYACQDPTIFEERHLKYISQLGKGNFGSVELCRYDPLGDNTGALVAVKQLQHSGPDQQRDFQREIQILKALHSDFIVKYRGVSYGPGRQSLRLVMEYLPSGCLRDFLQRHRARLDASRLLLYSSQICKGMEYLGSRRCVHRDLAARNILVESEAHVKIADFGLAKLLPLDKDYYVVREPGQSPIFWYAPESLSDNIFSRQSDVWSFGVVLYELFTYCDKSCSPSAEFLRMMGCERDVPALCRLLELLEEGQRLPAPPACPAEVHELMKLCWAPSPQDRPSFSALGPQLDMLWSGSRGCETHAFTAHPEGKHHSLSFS

Row | Compound | IC50 (ITK) | IC50 (JAK3) | IC50 [1] | IC50 [2]
1 | C=CC(=O)N1C[C@H](Nc2ncnc3[nH]cc(C(=O)OCCC)c23)CC[C@@H]1C [Example 3, propyl 4-(((3R,6S)-1-acryloyl-6-methylpiperidin-3-yl)amino)-7H-pyrrolo[2,3-d]pyrimidine-5-carboxylate] | ≤ 10 nM | ≤ 10 nM | ≤ 100 nM | 100 to 1000 nM
2 | C=CC(=O)N1C[C@H](Nc2ncnc3[nH]cc(C(=O)OC(C)C)c23)CC[C@@H]1C [Example 4, isopropyl 4-(((3R,6S)-1-acryloyl-6-methylpiperidin-3-yl)amino)-7H-pyrrolo[2,3-d]pyrimidine-5-carboxylate] | ≤ 10 nM | ≤ 10 nM | 100 to 1000 nM | 100 to 1000 nM
3 | C=CC(=O)N1CCC[C@@H](Nc2ncnc3[nH]cc(C(=O)C4CC4)c23)C1 [Example 5, (R)-1-(3-((5-(cyclopropanecarbonyl)-7H-pyrrolo[2,3-d]pyrimidin-4-yl)amino)piperidin-1-yl)prop-2-en-1-one] | ≤ 10 nM | 10 to 100 nM | 100 to 1000 nM | > 1000 nM
4 | C=CC(=O)N1CCC[C@@H](Nc2ncnc3[nH]cc(C(=O)C4CCCC4)c23)C1 [Example 6, (R)-1-(3-((5-(cyclopentanecarbonyl)-7H-pyrrolo[2,3-d]pyrimidin-4-yl)amino)piperidin-1-yl)prop-2-en-1-one] | ≤ 10 nM | 10 to 100 nM | 100 to 1000 nM | > 1000 nM
5 | C=CC(=O)N1CC(Nc2ncnc3[nH]cc(C(=O)C4CC4)c23)C1 [Example 7, 1-(3-((5-(cyclopropanecarbonyl)-7H-pyrrolo[2,3-d]pyrimidin-4-yl)amino)azetidin-1-yl)prop-2-en-1-one] | 10 to 100 nM | > 100 nM | > 1000 nM | > 1000 nM
6 | C=CC(=O)N1CCC[C@@H](Nc2ccnc3[nH]cc(C(=O)CCOC)c23)C1 [Example 8, (R)-1-(3-((3-(3-methoxypropanoyl)-1H-pyrrolo[2,3-b]pyridin-4-yl)amino)piperidin-1-yl)prop-2-en-1-one] | 10 to 100 nM | 10 to 100 nM | > 1000 nM | > 1000 nM
7 | C=CC(=O)N1CCC[C@@H](Nc2ccnc3[nH]cc(C(=O)C4CC4)c23)C1 [Example 9, (R)-1-(3-((3-(cyclopropanecarbonyl)-1H-pyrrolo[2,3-b]pyridin-4-yl)amino)piperidin-1-yl)prop-2-en-1-one] | ≤ 10 nM | ≤ 10 nM | 100 to 1000 nM | 100 to 1000 nM
8 | C=CC(=O)N1CCC(Nc2ccnc3[nH]cc(C(=O)C4CC4)c23)CC1 [Example 10, 1-(4-((3-(cyclopropanecarbonyl)-1H-pyrrolo[2,3-b]pyridin-4-yl)amino)piperidin-1-yl)prop-2-en-1-one] | > 100 nM | > 100 nM | > 1000 nM | > 1000 nM
9 | C=CC(=O)N1CCC[C@@H](Nc2ccnc3[nH]cc(C(=O)C4CCCC4)c23)C1 [Example 13, (R)-1-(3-((3-(cyclopentanecarbonyl)-1H-pyrrolo[2,3-b]pyridin-4-yl)amino)piperidin-1-yl)prop-2-en-1-one] | ≤ 10 nM | 10 to 100 nM | 100 to 1000 nM | 100 to 1000 nM
10 | C=CC(=O)N1CCC[C@@H](Nc2ccnc3[nH]cc(C(=O)C4(C)CC4)c23)C1 [Example 14, (R)-1-(3-((3-(1-methylcyclopropane-1-carbonyl)-1H-pyrrolo[2,3-b]pyridin-4-yl)amino)piperidin-1-yl)prop-2-en-1-one] | ≤ 10 nM | ≤ 10 nM | 100 to 1000 nM | 100 to 1000 nM
11 | C=CC(=O)N1CC[C@@H](Nc2ccnc3[nH]cc(C(=O)C4CC4)c23)C1 [Example 15, (R)-1-(3-((3-(cyclopropanecarbonyl)-1H-pyrrolo[2,3-b]pyridin-4-yl)amino)pyrrolidin-1-yl)prop-2-en-1-one] | ≤ 10 nM | 10 to 100 nM | 100 to 1000 nM | > 1000 nM
12 | C=CC(=O)N1C[C@H](Nc2ncnc3[nH]cc(C(=O)OCC(C)C)c23)CC[C@@H]1C [Example 16, isobutyl 4-(((3R,6S)-1-acryloyl-6-methylpiperidin-3-yl)amino)-7H-pyrrolo[2,3-d]pyrimidine-5-carboxylate] | 10 to 100 nM | ≤ 10 nM | > 1000 nM | 100 to 1000 nM
13 | C=CC(=O)N1C[C@H](Nc2ncnc3[nH]cc(C(=O)C4CCC4)c23)CC[C@@H]1C [Example 17, 1-((2S,5R)-5-((5-(cyclobutanecarbonyl)-7H-pyrrolo[2,3-d]pyrimidin-4-yl)amino)-2-methylpiperidin-1-yl)prop-2-en-1-one] | ≤ 10 nM | ≤ 10 nM | ≤ 100 nM | 100 to 1000 nM
14 | C=CC(=O)N1CCC[C@@H](Nc2ncnc3[nH]cc(CC4CC4)c23)C1 [Example 18, (R)-1-(3-((5-(cyclopropylmethyl)-7H-pyrrolo[2,3-d]pyrimidin-4-yl)amino)piperidin-1-yl)prop-2-en-1-one] | ≤ 10 nM | ≤ 10 nM | ≤ 100 nM | 100 to 1000 nM
15 | C=CC(=O)N1CCC[C@@H](Nc2ccnc3[nH]cc(CC4CC4)c23)C1 [Example 19, (R)-1-(3-((3-(cyclopropylmethyl)-1H-pyrrolo[2,3-b]pyridin-4-yl)amino)piperidin-1-yl)prop-2-en-1-one] | ≤ 10 nM | ≤ 10 nM | ≤ 100 nM | 100 to 1000 nM
16 | C=CC(=O)N1CCC[C@@H](Nc2ncnc3[nH]cc(CC4CCC4)c23)C1 [Example 20, (R)-1-(3-((5-(cyclobutylmethyl)-7H-pyrrolo[2,3-d]pyrimidin-4-yl)amino)piperidin-1-yl)prop-2-en-1-one] | ≤ 10 nM | ≤ 10 nM | 100 to 1000 nM | 100 to 1000 nM
17 | C=CC(=O)N1CCC[C@@H](Nc2ncnc3[nH]cc(C(C)C4CC4)c23)C1 (stereo partly drawn) [Example 21, 1-((3R)-3-((5-(1-cyclopropylethyl)-7H-pyrrolo[2,3-d]pyrimidin-4-yl)amino)piperidin-1-yl)prop-2-en-1-one] | > 100 nM | > 100 nM | > 1000 nM | > 1000 nM
18 | C=CC(=O)N1CCC[C@@H](Nc2ncnc3[nH]cc(CC4CCCC4)c23)C1 [Example 22, (R)-1-(3-((5-(cyclopentylmethyl)-7H-pyrrolo[2,3-d]pyrimidin-4-yl)amino)piperidin-1-yl)prop-2-en-1-one] | ≤ 10 nM | ≤ 10 nM | 100 to 1000 nM | 100 to 1000 nM
19 | C=CC(=O)N1CCC[C@@H](Nc2ncnc3[nH]cc(C4(C)CC4)c23)C1 [Example 23, (R)-1-(3-((5-(1-methylcyclopropyl)-7H-pyrrolo[2,3-d]pyrimidin-4-yl)amino)piperidin-1-yl)prop-2-en-1-one] | ≤ 10 nM | ≤ 10 nM | 100 to 1000 nM | 100 to 1000 nM
20 | C=CC(=O)N1C[C@H](Nc2ncnc3[nH]cc(CC4CC4)c23)CC[C@@H]1C [Example 24, 1-((2S,5R)-5-((5-(cyclopropylmethyl)-7H-pyrrolo[2,3-d]pyrimidin-4-yl)amino)-2-methylpiperidin-1-yl)prop-2-en-1-one] | ≤ 10 nM | ≤ 10 nM | ≤ 100 nM | 100 to 1000 nM
